Columns and labels:
mice [1] = experiment: Forced swimming test in mice (FST); type: in vivo; details: Mus musculus, 0.5 h, 30ip, reduction in duration of immobility vs control group, 30 min after administration
Protocol: Forced swimming Test in Mice (FST)
The Forced swimming test is an animal model based on the rodent's behavioral repertoire for screening drugs with potential antidepressant activity. As in several other models used for this goal, an uncontrollable stress stimulus produces behavioral changes that are sensitive to antidepressant treatment.
The mice were intraperitoneally treated with the test compound with an injection volume of […]. The group treated with 30% PEG400 served as a control group. Thirty minutes following administration, mice were individually forced to swim in a transparent glass vessel (14 cm high, 11.5 cm in diameter) filled with 10 cm of water at 25° C. The total duration of immobility (second) was measured during the last 4 minutes of a single 6-min test session. Mice were considered immobile when they made no further attempts to escape other than the movements necessary to keep their heads above the water. The potent ability of the compounds was determined as percent value of reduction in the duration of immobility comparing to the control group.

[2] = target: T1, human recombinant norepinephrine transporter (Homo sapiens, UniProt P23975); experiment: Norepinephrine transporter reuptake inhibition assay ([3H]Norepinephrine uptake); type: cell-based; details: for inhibition at 0.1 µM: 100 nM, MDCK cells with human recombinant norepinephrine transporter, read-out: Inhibition % at 100 nM NE reuptake
T1 construct: expressed in transfected cells; host or cells: MDCK
T1 sequence (P23975 whole entry): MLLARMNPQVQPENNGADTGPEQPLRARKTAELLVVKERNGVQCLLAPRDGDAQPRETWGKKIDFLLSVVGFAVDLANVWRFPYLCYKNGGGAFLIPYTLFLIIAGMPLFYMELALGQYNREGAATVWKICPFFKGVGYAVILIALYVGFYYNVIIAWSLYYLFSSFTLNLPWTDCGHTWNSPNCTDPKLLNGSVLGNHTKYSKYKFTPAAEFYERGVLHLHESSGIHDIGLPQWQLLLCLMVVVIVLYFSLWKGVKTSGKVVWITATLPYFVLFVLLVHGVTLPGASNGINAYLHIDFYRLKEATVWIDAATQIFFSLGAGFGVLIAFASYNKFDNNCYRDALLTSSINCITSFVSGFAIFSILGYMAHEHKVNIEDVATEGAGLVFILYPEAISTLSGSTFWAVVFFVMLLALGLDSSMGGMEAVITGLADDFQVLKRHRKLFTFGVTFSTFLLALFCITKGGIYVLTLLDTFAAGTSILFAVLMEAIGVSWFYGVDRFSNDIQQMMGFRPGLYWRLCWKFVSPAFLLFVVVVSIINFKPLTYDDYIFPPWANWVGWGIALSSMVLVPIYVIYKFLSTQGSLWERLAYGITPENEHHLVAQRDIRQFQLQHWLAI
Protocol: Norepinephrine Transporter Reuptake Inhibition Assay
MDCK cells with stably expressed human recombinant norepinephrine transporter were plated one day. Test compounds were pre-incubated with cells (2×10^5/ml) in modified Tris-HEPES buffer pH 7.1 for 20 minutes at 25° C. and then they were incubated for additional 10 minutes after 25 nM of [^3H]Norepinephrine was added. A lysate was obtained from solubilized cells and the filtered lysate was counted to determine [^3H]Norepinephrine uptake. Reduction of [^3H]Norepinephrine uptake by 50 percent or more (≧50%) relative to 10 μM desipramine indicates significant inhibitory activity.

mice [3] = experiment: Marble burying test; type: in vivo; details: reduction in number of marbles buried vs control group, 30 min after treatment
Excerpt: The Marble burying test is a screening tool for putative anxiolytics. In this test, control mice naturally bury glass marbles in the cage bedding and the administration of anxiolytic compounds, including Diazepam, reduces the number of buried marbles. Positive compounds in the marble burying test including selective serotonin reuptake inhibitor may be especially beneficial to obsessive-compulsive disorder.
A group of mice was intraperitoneally treated with test compound dissolved in 30% PEG400 with an injection volume of 10 ml/kg. The group treated with only 30% PEG400 served as a control group. Thirty minutes after the treatment, the animals were individually placed in a polycarbonate cage which was same as used for animal housing with an open top located within a quiet room. Each cage consisted of ⅛ inch corn bedding 5 cm deep. Twenty four clean glass marbles (15 mm diameter) were evenly spaced in four rows of six on top of the bedding. Each mouse was left in the cage for 30 minutes and the number of marbles buried (buried more than ½ or ⅔) was counted. The potent ability of the compounds was determined as percent value of reduction in the number of marbles buried comparing to the control group.

[4] = target: T2, human serotonin transporter (Homo sapiens, UniProt P31645); experiment: Serotonin transporter reuptake inhibition assay ([3H]Serotonin uptake); type: cell-based; details: recombinant HEK-293 cells with human serotonin transporter; for inhibition at 0.1 µM: HEK293, 100 nM, read-out: Inhibition % at 100 nM 5-HT reuptake
T2 construct: expressed in transfected cells; host or cells: HEK-293
T2 sequence (P31645 whole entry): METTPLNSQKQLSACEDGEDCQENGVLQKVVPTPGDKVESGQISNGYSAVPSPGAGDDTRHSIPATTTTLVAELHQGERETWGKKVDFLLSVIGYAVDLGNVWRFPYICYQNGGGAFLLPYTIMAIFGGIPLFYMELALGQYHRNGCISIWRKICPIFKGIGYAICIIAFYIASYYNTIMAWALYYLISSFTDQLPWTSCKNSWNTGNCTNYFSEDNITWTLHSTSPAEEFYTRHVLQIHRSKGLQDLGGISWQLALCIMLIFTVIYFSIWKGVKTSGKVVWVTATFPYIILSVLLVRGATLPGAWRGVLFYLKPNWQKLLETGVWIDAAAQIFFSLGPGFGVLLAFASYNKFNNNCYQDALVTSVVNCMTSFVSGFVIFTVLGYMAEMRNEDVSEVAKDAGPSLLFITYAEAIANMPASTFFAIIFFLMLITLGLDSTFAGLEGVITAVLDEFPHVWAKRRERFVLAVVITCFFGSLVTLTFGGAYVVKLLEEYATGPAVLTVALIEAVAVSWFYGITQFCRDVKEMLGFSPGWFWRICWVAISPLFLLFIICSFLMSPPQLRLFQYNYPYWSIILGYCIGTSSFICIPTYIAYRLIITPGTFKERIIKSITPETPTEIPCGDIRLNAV
Protocol: Serotonin Transporter Reuptake Inhibition Assay
The recombinant HEK-293 cells with human serotonin transporter were plated. Test compounds described in table 1 were pre-incubated with cells (2×10^5/ml) in modified Tris-HEPES buffer pH 7.1 for 20 minutes at 25° C. and then they were incubated for additional 10 minutes after 65 nM of [^3H]Serotonin was added. Bound cells were filtered and counted to determine [^3H]Serotonin uptake. Reduction of [^3H]Serotonin uptake by 50 percent or more (≧50%) relative to 10 μM fluoxetine indicates significant inhibitory activity.

mice [5] = experiment: Acetic acid induced writhing test (AA writhing test); type: in vivo; details: Mus musculus, 0.5 h, 30sc, reduction in number of writhing vs control group, 0.8% acetic acid ip 30 min after compound
Excerpt: Acetic Acid Induced Writhing Test (AA Writhing Test)
The Acetic acid-induced writhing test is a well-established nociceptive test using a chemical stimulus. Although several animal models of nociceptive tests have been developed to examine and compare the anti-nociceptive effects of different drugs, the anti-nociceptive effects of antidepressants appear to be test-dependent. Indeed, the acetic acid-induced writhing test is more sensitive to antidepressants than other tests using thermal, mechanical or electrical stimuli.
The animals were subcutaneously treated with the test compound with an injection volume of 10 ml/kg. The group treated with 30% PEG400 or saline served as a control group. Thirty minutes later, the mice were intraperitoneally treated with 0.8% (v/v) acetic acid. Each mouse was then placed in a cage for individual observation. The writhing numbers for 10 minutes were counted. The writhe is operationally defined as a contraction of the abdomen followed by stretching of the hind limbs. The potent ability of the compounds was determined as percent value of reduction in the number of writhing comparing to the control group.

[6] = target: T3, human recombinant dopamine transporter (Homo sapiens, UniProt Q01959); experiment: Dopamine transporter reuptake inhibition assay ([3H]Dopamine uptake); type: cell-based; details: CHO-K1 cells with human recombinant dopamine transporter; for inhibition at 0.1 µM: 100 nM, read-out: Inhibition % at 100 nM DA reuptake
T3 construct: expressed in transfected cells; host or cells: CHO-K1
T3 sequence (Q01959 whole entry): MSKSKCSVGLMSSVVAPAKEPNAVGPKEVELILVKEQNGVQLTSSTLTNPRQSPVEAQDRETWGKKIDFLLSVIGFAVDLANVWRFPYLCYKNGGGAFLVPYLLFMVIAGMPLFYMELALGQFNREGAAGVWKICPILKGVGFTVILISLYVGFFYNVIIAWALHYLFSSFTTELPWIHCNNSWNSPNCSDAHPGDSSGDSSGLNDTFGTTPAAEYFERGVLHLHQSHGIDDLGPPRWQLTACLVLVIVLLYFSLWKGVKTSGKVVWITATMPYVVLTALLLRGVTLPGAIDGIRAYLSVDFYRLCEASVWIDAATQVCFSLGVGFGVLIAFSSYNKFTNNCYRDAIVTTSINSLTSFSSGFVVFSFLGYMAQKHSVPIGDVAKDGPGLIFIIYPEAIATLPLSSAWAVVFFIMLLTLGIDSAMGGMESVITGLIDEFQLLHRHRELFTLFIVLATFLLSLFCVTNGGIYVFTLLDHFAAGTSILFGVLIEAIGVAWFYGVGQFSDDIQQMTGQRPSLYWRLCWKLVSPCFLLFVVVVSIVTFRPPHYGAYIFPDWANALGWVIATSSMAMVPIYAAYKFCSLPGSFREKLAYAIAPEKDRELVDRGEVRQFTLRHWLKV
Protocol: Dopamine Transporter Reuptake Inhibition Assay
CHO-K1 cells with human recombinant dopamine transporter were plated. Test compounds were pre-incubated with cells (4×10^5/ml) in modified Tris-HEPES buffer pH 7.1 for 20 minutes at 25° C. and then they were incubated for additional 10 minutes after 50 nM of [^3H]Dopamine was added. A lysate is obtained from solubilized cells and counted to determine [^3H]Dopamine uptake. Reduction of [^3H]Dopamine uptake by 50 percent or more (≧50%) relative to 10 μM nomifensine indicates significant inhibitory activity.

Row | SMILES | inhibition in vivo at 30 mg/kg (mice [1]) [%] | inhibition at 0.1 µM [2] [%] | Reduction % at 30ip (mice [3]) [%] | inhibition at 0.1 µM [4] [%] | inhibition in vivo at 30 mg/kg (mice [5]) [%] | inhibition at 0.1 µM [6] [%] | Reduction % (at 10ip) (mice [3]; 10ip) [%] | Inhibition % at 100 nM NE reuptake [2] [%] | Inhibition % at 100 nM 5-HT reuptake [4] [%] | Inhibition % at 100 nM DA reuptake [6] [%]
1 | CN(C)CCC(c1ccc2ccccc2c1)n1ncnn1 (stereo not drawn) [Example 6, Dimethyl-(3-naphthalen-2-yl-3-tetrazol-2-yl-propyl)-amine] | 41.4 | 30 | 87.7 | 41 | 60.2 | 20 |  |  |  | 
2 | CNCC[C@@H](c1ccc2ccccc2c1)n1nnc(C)n1 [Example 188, (3S)-Methyl-[3-(5-methyl-tetrazol-2-yl)-3-naphthalen-2-yl-propyl]-amine] | 36.7 | 79 | 70.7 | 82 | 39.5 | 7 |  |  |  | 
3 | CNCCC(c1ccc2cc(OC)ccc2c1)n1nnc(C)n1 (stereo not drawn) [Example 167, [3-(6-Methoxy-naphthalen-2-yl)-3-(5-methyl-tetrazol-2-yl)-propyl]-methyl-amine] | 17.9 | 84 |  | 82 | 52.1 | 3 | 56.9 |  |  | 
4 | CNCC[C@@H](c1ccc(Cl)c(Cl)c1)n1nnc(C)n1 [Example 129, (3S)-3-(3,4-dichlorophenyl)-N-methyl-3-(5-methyl-2H-tetrazol-2-yl)propan-1-amine] | 36.7 | 84 | 94.3 | 43 | 94.4 | 62 |  |  |  | 
5 | CN(C)CCC(c1ccc2cc(F)ccc2c1)n1ncnn1 (stereo not drawn) [Example 50, [3-(6-Fluoro-naphthalen-2-yl)-3-tetrazol-2-yl-propyl]-dimethyl-amine] | 35 | 12 | 86.2 | 61 | 53.8 | 7 |  |  |  | 
6 | CNCCC(c1ccc2ccccc2c1)n1ncnn1 (stereo not drawn) [Example 119, Methyl-(3-naphthalen-2-yl-3-tetrazol-2-yl-propyl)-amine] | 43.2 | 84 |  | 78 |  | 10 |  |  |  | 
7 | CNCCC(c1ccc2cc(F)ccc2c1)n1ncnn1 (stereo not drawn) [Example 136, [3-(6-Fluoro-naphthalen-2-yl)-3-tetrazol-2-yl-propyl]-methyl-amine] |  | 25 |  | 59 |  | 6 |  |  |  | 
8 | CNCCC(c1cc2ccccc2cc1OC)n1nnc(C)n1 (stereo not drawn) [Example 135, [3-(3-Methoxy-naphthalen-2-yl)-3-(5-methyl-tetrazol-2-yl)-propyl]-methyl-amine] |  | 17 |  | 47 |  | -1 |  |  |  | 
9 | CNCCC(c1ccc2cc(F)ccc2c1)n1nnc(C)n1 (stereo not drawn) [Example 137, [3-(6-Fluoro-naphthalen-2-yl)-3-(5-methyl-tetrazol-2-yl)-propyl]-methyl-amine] |  | 39 |  | 58 |  | 10 |  |  |  | 
10 | COc1ccc2cc(C(CCN(C)C)n3ncnn3)ccc2c1 (stereo not drawn) [Example 21, [3-(6-Methoxy-naphthalen-2-yl)-3-tetrazol-2-yl-propyl]-dimethyl-amine] |  | 39 |  | 44 |  | 36 |  |  |  | 
11 | CNCCC(c1ccc2cc(C)ccc2c1)n1ncnn1 (stereo not drawn) [Example 122, Methyl-[3-(6-methyl-naphthalen-2-yl)-3-tetrazol-2-yl-propyl]-amine] | 43.7 | 55 |  | 93 |  | 3 |  |  |  | 
12 | CNCCC(c1ccc2cc(OC)ccc2c1)n1ncnn1 (stereo not drawn) [Example 166, [3-(6-Methoxy-naphthalen-2-yl)-3-tetrazol-2-yl-propyl]-methyl-amine] | 28.9 | 70 |  | 88 |  | 4 |  |  |  | 
13 | CN(C)CCC(c1ccc(Cl)c(Cl)c1)n1ncnn1 (stereo not drawn) [Example 1, [3-(3,4-Dichloro-phenyl)-3-tetrazol-2-yl-propyl]-dimethyl-amine] | 24.9 | 37 | 54.8 | 27 | 55.3 | 58 |  |  |  | 
14 | CNCCC(c1ccc(Cl)c(Cl)c1)n1ncnn1 (stereo not drawn) [Example 2, [3-(3,4-Dichloro-phenyl)-3-tetrazol-2-yl-propyl]-methyl-amine] | 82.4 |  | 100 |  | 50.3 |  |  | 56 | 35 | 48
15 | Cc1nnn(C(CCN(C)C)c2ccc3cc(F)ccc3c2)n1 (stereo not drawn) [Example 51, [3-(6-Fluoro-naphthalen-2-yl)-3-(5-methyl-tetrazol-2-yl)-propyl]-dimethyl-amine] | 24.5 | 10 | 72.4 | 61 | 51.4 | 6 |  |  |  | 
16 | CN(C)CCC(c1ccc2cc(Cl)ccc2c1)n1ncnn1 (stereo not drawn) [Example 14, [3-(6-Chloro-naphthalen-2-yl)-3-tetrazol-2-yl-propyl]-dimethyl-amine] |  | 32 |  | 46 |  | 18 |  |  |  | 

Source: patent US8101642B2, “3-substituted propanamine compounds” (SK Biopharmaceuticals Co., Ltd., priority 2008, dated 2012)
